{
  "source": "patent US20260102390A1",
  "about": "“4-(2-(4-((2,4-DIOXOTHIAZOLIDIN-5-YL)METHYL)PHENOXY) DERIVATIVES AS PPARgamma AGONISTS AND AUTOTAXIN INHIBITORS FOR USE IN THE TREATMENT OF FIBROSIS” (Uni-Pharma Kleon Tsetis Pharmaceutical Laboratories S.A., priority 2022, published 2026)",
  "key": {"ATX": {"molecular_target": "ATX (UniProt Q9R1E6)", "assay": "ATX inhibitory activity, Amplex Red method", "format": "biochemical", "details": "LPC 16:0 50 μM, two independent experiments, read-out: IC50 against ATX", "experimental": "The inhibition of ATX enzyme activity of the pharmaceutical compound A-1 was measured in vitro by applying the Amplex Red method. Briefly, 2 μL of concentration from 0.001 to 5 μmol/L of derivative […] in DMSO was incubated with 50 μL ATX 8 nM (up to a final concentration of 2 nM and 1 nM for human ATX) and 48 μL of a buffer solution (50 mM Tris-Cl of pH 8.0 and 5 mM CaCl2) for 15 minutes at 37° C. Subsequently, 50 μL of a buffer solution containing 200 μM LPC 16:0 (final concentration 50 μM) was added to the reaction mixture followed by incubation for another 30 minutes at 37° C. Finally, 50 μL of working solution containing 200 μM Amplex Red reagent and choline oxidase (0.2 U/mL) […] HRP (2 U/mL), in 50 mM Tris-HCl at pH 8.0 and 5 mM CaCl2, was added to begin the reaction. The reaction was monitored at 37° C., in a fluorescence plate reader (Tecan Infinite 200) using excitation at 530 nm and reading at 590 nm, every five minutes for 30 minutes at 37° C. The IC50 value was calculated from two independent experiments, using the sigmoid dose-response curve (PrismH software) from the equation f=y0+a/(1+exp(−(x−x0)/b) given from SigmaPlot 11.0."}, "Mouse ATX": {"molecular_target": "T1, Mouse ATX (Mus musculus, UniProt Q9R1E6)", "T1 construct": "purchased Sino Biological", "assay": "Mode of inhibition of ATX, modified Amplex assay (Lineweaver-Burk)", "format": "biochemical", "details": "inhibitor 1-7.5 μM, LPC 25, 50, 100 μM", "experimental": "To determine the mode of inhibition of ATX by each inhibitor, a modified Amplex assay was employed. In brief, various concentrations of inhibitors (1, 2.5, 5 and 7.5 μM) were tested against various substrate concentrations (LPC 25, 50, 100 μM). Mouse ATX from Sino Biological was used in all mode of inhibition assays. Thereafter, the velocity (V) of the reaction was calculated and the reciprocal of velocity (1/V) was plotted against the reciprocal of substrate concentration (1/S) in Lineweaver-Burk graphs using GraphPad Software (GraphPad Software, San Diego, CA, USA)."}, "HRP peroxidase": {"molecular_target": "T2, HRP peroxidase (Armoracia rusticana, UniProt P00433)", "T2 sequence (P00433 31-338 limits assumed)": "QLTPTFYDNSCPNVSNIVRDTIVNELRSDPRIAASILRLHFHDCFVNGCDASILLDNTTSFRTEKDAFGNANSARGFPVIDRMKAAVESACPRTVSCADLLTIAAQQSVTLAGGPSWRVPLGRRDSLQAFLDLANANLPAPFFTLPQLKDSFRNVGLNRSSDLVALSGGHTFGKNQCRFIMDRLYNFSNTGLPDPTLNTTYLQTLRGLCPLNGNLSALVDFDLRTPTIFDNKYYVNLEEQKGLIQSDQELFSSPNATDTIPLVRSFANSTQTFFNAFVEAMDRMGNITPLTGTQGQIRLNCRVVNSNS", "assay": "3rd reaction of the Amplex Red assay (counter-test)", "format": "biochemical", "details": "3rd reaction of Amplex Red assay"}, "[1]": {"assay": "In vitro metabolism assay in liver microsomes", "format": "in vitro ADME", "experimental": "The in vitro metabolism assay was performed in liver microsomes. […] This half-live is higher than the ones of known drugs such as imipramine and others, therefore, it seems that A-1 is not quickly cleared from the circulation and, thus, remain available in the circulation for a sufficient period of time."}, "[2]": {"assay": "In vitro absorption assay, membrane permeability", "format": "in vitro ADME", "details": "dog, MDCK, MDCKII", "experimental": "The in vitro absorption assay was performed in the kidney MDCKII cell line and involves the permeability from A to B, when A and B are separated by an MDCKII cell membrane. Ideally, a compound should have a high A to B permeability, but a lower B to A permeability in order to be well-absorbed. […] The A-B permeability is much higher than the B-A permeability, thus both compounds are absorbed well in vitro."}, "choline oxidase": {"tested_on": "choline oxidase", "assay": "2nd reaction of the Amplex Red assay (counter-test)", "format": "biochemical", "details": "2nd reaction of Amplex Red assay"}, "[3]": {"tested_on": "BLM-induced pulmonary fibrosis", "assay": "BLM-induced pulmonary fibrosis in mice, inhalation in therapeutic mode", "format": "in vivo, C57B16/J mice", "details": "inhalation 15 mg/Kg twice daily for 7 days, from 7d post BLM", "experimental": "To explore the therapeutic potential of ATX inhibition in pulmonary fibrosis, BLM was administered to 8-10-week-old C57B16/J mice. Subsequently, the pharmaceutical compound A-1 was delivered for 7 days twice daily via inhalation (1 ml of 6.5 mg/ml for 10 mins/6 mice, corresponding to 15 mg/Kg per mouse) to conscious, gently re-strained mice, in a therapeutic mode (7d post BLM)."}, "[4]": {"tested_on": "BLM-induced pulmonary fibrosis", "assay": "Bleomycin (BLM)-induced pulmonary fibrosis in mice, dosing from one day before BLM", "format": "in vivo, C57Bl6/J mice", "experimental": "10-week-old male wild-type C57Bl6/J animals were administered a saline solution of bleomycin (BLM) directly to the lungs via the orotracheal route. The dose of bleomycin was 0.8 U/kg. […] All animals were monitored daily until the 14th day after the BLM injection when they were killed. […] Serum, broncheoalveolar fluid and lung tissue samples were taken at the end point of the experiment and were used to assess the severity of fibrosis for each animal.\nBlood serum was collected for each animal and levels of ALT and AST transaminases, which are markers of liver damage, were assessed by using an automated biochemical analyzer.\nNext, in the collected broncheoalveolar fluid, the number of cells as well as the total protein concentration were assessed as indicators of inflammation and endothelial penetration, respectively.\nAdditionally, in sections of lung tissue isolated from the animals, fibrosis was assessed after staining with hematoxylin and eosin.\nThe mRNA levels of fibrosis-related genes col1α1 (collagen 1α1) in whole lung RNA samples were also estimated."}, "hERG": {"molecular_target": "T3, hERG (Homo sapiens, UniProt Q12809)", "T3 construct": "expressed in transfected cells; host or cells: CHO cells", "T3 sequence (Q12809 whole entry)": "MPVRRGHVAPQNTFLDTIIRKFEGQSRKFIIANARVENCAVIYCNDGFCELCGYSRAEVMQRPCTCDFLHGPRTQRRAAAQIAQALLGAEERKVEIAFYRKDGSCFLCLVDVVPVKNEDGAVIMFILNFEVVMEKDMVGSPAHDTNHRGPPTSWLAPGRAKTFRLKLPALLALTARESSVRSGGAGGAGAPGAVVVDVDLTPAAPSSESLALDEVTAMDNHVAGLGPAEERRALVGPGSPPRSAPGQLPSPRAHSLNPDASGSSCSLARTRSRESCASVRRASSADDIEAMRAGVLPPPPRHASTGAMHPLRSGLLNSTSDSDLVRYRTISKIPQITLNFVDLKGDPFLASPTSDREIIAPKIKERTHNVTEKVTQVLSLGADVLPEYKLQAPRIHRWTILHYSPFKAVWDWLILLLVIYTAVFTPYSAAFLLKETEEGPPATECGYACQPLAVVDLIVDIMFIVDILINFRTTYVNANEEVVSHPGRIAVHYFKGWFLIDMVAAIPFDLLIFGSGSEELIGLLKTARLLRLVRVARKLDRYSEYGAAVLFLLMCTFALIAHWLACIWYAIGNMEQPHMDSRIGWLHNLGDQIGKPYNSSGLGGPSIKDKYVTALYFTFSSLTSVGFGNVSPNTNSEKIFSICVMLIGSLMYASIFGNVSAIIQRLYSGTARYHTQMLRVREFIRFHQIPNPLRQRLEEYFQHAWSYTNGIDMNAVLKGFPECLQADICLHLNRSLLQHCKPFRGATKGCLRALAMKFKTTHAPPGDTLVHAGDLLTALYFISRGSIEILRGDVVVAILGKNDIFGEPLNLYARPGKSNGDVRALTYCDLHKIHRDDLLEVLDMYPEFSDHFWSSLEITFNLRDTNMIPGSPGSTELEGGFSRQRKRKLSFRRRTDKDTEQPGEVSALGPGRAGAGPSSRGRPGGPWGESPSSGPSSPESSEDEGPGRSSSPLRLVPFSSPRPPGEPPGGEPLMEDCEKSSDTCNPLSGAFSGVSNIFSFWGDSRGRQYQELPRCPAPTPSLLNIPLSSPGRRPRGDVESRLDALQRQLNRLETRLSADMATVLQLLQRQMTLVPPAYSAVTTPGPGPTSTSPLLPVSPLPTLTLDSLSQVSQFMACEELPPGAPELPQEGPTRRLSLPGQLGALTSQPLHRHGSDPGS", "assay": "Cardiac toxicity assay, hERG inhibition in CHO cells", "format": "cell-based", "details": "for cardiotoxicity (conclusion): from hERG assay", "experimental": "The assay of cardiac toxicity is performed on CHO cells that express the human ether-a-go-go related gene (hERG) that encodes the inward rectifying voltage gated potassium channel in the heart, which is involved in cardiac repolarisation. Inhibition of the hERG may cause potentially fatal ventricular tachyarrhythmia."}, "[5]": {"details": "30 mg/kg, 2 doses daily, vs B+V group"}},
  "note": "pIC50: −log10 of the molar value. “Also recorded” adds a separate entry of the source.",
  "data": [
    {"smiles": "O=C1NC(=O)C(Cc2ccc(OCCN3CCN(C(=O)OCc4cc(Cl)cc(Cl)c4)CC3)cc2)S1", "note": "(centres unmarked) [A-1, 3,5-dichlorobenzyl4-(2-(4-((2,4-dioxothiazolidin-5-yl)methyl)phenoxy)ethyl)piperazine-1-carboxylate]", "values": [
      {"measurement": "pIC50", "setting": "ATX", "result": 6.72},
      {"measurement": "mode of inhibition against ATX", "setting": "Mouse ATX", "result": "non-competitive inhibition"},
      {"measurement": "inhibition of HRP peroxidase", "setting": "HRP peroxidase", "result": "no inhibition; also recorded: Neither compound showed any detectable inhibition"},
      {"measurement": "microsomal CLint", "setting": "[1]; liver microsomes, read-out: Clint (intrinsic clearance)", "result": 329, "unit": "µL/min/mg"},
      {"measurement": "half-life", "setting": "[1]; microsomes", "result": 21, "unit": "min"},
      {"measurement": "Papp A→B", "setting": "[2]; A to B", "result": 3.7, "unit": "×10⁻⁶ cm/s"},
      {"measurement": "Papp B→A", "setting": "[2]; B to A", "result": 0.8, "unit": "×10⁻⁶ cm/s"},
      {"measurement": "inhibition of choline oxidase", "setting": "choline oxidase", "result": "no inhibition; also recorded: Neither compound showed any detectable inhibition"},
      {"measurement": "inflammatory cells in BALF", "setting": "[3]", "result": "significantly reduced"},
      {"measurement": "lung architecture, H&E staining", "setting": "[3]", "result": "prevented BLM-induced architectural distortion"},
      {"measurement": "lung respiratory functions (FlexiVent)", "setting": "[3]", "result": "relative protection"},
      {"measurement": "vascular leak and pulmonary edema (total protein concentration in BALF)", "setting": "[3]", "result": "noteworthy decrease"},
      {"measurement": "side effects during the model", "setting": "[4]; 30 mg/kg, 2 doses daily, 14 days post BLM, vs untreated group", "result": "did not suffer any unwanted side effects"},
      {"measurement": "fibrotic areas in lung sections, hematoxylin and eosin", "setting": "[4]; [5]", "result": "less fibrotic areas"},
      {"measurement": "number of cells in bronchoalveolar fluid", "setting": "[4]; [5]", "result": "reduced number of cells"},
      {"measurement": "total protein concentration in bronchoalveolar fluid", "setting": "[4]; [5]", "result": "lower levels"},
      {"measurement": "col1α1 mRNA levels in whole lung", "setting": "[4]; 30 mg/kg, 2 doses daily, vs B+V, restored to S+V level", "result": "reduces the mRNA levels (expression) of col1α1 statistically significantly"},
      {"measurement": "serum ALT level", "setting": "[4]; 30 mg/kg, 2 doses daily, normal range 28-132 U/L", "result": "normal"},
      {"measurement": "serum AST level", "setting": "[4]; 30 mg/kg, 2 doses daily, normal range 59-247 U/L", "result": "normal"},
      {"measurement": "liver toxicity / hepatotoxicity (conclusion)", "setting": "[4]; from ALT and AST levels", "result": "does not cause any adverse toxicity to the liver; also recorded: does not exhibit hepatotoxicity"},
      {"measurement": "pIC50", "setting": "hERG", "result": 4.92},
      {"measurement": "cardiotoxicity (conclusion)", "setting": "hERG", "result": "not cardiotoxic; also recorded: does not exhibit cardiotoxicity"}
    ]},
    {"smiles": "Cc1c(C)c2c(c(C)c1O)CCC(C)(COc1ccc(CC3SC(=O)NC3=O)cc1)O2", "note": "(centres unmarked) [TGL, troglitazone, reference compound]", "values": [
      {"measurement": "pIC50", "setting": "ATX", "result": 6.21}
    ]},
    {"smiles": "O=C1NC(=O)C(Cc2ccc(OCCC3CCN(C(=O)OCc4cc(Cl)cc(Cl)c4)CC3)cc2)S1", "note": "(centres unmarked) [A-3, 3,5-dichlorobenzyl 4-(2-(4-((2,4-dioxothiazolidin-5-yl)methyl)phenoxy)ethyl)piperidine-1-carboxylate]", "values": [
      {"measurement": "pIC50", "setting": "ATX", "result": 7.52},
      {"measurement": "mode of inhibition against ATX", "setting": "Mouse ATX", "result": "non-competitive inhibition"},
      {"measurement": "inhibition of HRP peroxidase", "setting": "HRP peroxidase", "result": "no inhibition; also recorded: Neither compound showed any detectable inhibition"},
      {"measurement": "inhibition of choline oxidase", "setting": "choline oxidase", "result": "no inhibition; also recorded: Neither compound showed any detectable inhibition"},
      {"measurement": "cardiotoxicity (conclusion)", "setting": "hERG", "result": "not cardiotoxic; also recorded: does not exhibit cardiotoxicity"},
      {"measurement": "inhibition at 25 µM", "setting": "hERG; human, at 25 μM", "result": 11, "unit": "%"}
    ]}
  ]
}
